Laboratory results reported in US20060069132A1, “Azolecarboxamide herbicides” (priority 2004, published 2006).

Legend:
morningglory = assay: Test A pre-/postemergence herbicide test; type: in vivo, Ipomoea spp.
Outline: (§1)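 Sandy loam soil given preemergence directed spray; plants at 2 to 10 cm, one- to two-leaf stage, sprayed to runoff postemergence, compounds in non-phytotoxic solvent with surfactant. Injury rated visually versus untreated controls after about ten greenhouse days, 0 (no effect) to 100 (complete control); dash means not tested.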

velvetleaf [1] = assay: Test A pre-/postemergence herbicide test; type: in vivo, Abutilon theophrasti
Outline: as §1

cocklebur = assay: Test C pre-/postemergence herbicide test; type: in vivo, Xanthium strumarium; conditions: for Cocklebur plant response rating: 500 g ai/ha
Outline: (§2)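 Preemergence: seeds planted and treated with compound in non-phytotoxic solvent with surfactant; postemergence: plants at 2 to 18 cm (1- to 4-leaf stage) sprayed likewise. Kept in greenhouse 12 to 14 days, then visually rated against controls, 0 (no effect) to 100 (complete control).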

goosegrass = assay: Test C pre-/postemergence herbicide test; type: in vivo, Eleusine indica
Outline: as §2

lambsquarters = assay: Test C pre-/postemergence herbicide test; type: in vivo, Chenopodium album
Outline: as §2

yellow nutsedge = assay: Test C pre-/postemergence herbicide test; type: in vivo, Cyperus esculentus
Outline: as §2

soybean = assay: Test C pre-/postemergence herbicide test; type: in vivo, Glycine max
Outline: as §2

[2] = system: common (oilseed) sunflower; assay: Test C pre-/postemergence herbicide test; type: in vivo, Helianthus annuus; conditions: preemergence
Outline: as §2

velvetleaf [3] = assay: Test C pre-/postemergence herbicide test; type: in vivo, Abutilon theophrasti
Outline: as §2

[4] = Postemergence, 500 g ai/ha, 0 to 100 scale, 0 no effect, 100 complete control
[5] = Postemergence, 2000 g ai/ha, 0 to 100 scale, 0 no effect, 100 complete control
[6] = Preemergence, 2000 g ai/ha, visual rating, 0 to 100 scale (0 no effect, 100 complete control)
[7] = preemergence, 500 g ai/ha, visual injury, 0 to 100 scale (0 no effect, 100 complete control)
[8] = 62 g ai/ha, preemergence, scale 0 to 100
[9] = 125 g ai/ha, scale 0 (no effect) to 100 (complete control), visual, 12 to 14 days, preemergence
[10] = 250 g ai/ha, scale 0-100, preemergence
[11] = Postemergence, 250 g ai/ha, scale 0 to 100, 0 no effect, 100 complete control
[12] = postemergence, 125 g ai/ha, scale 0 to 100
[13] = postemergence, 62 g ai/ha, scale 0 to 100
[14] = 500 g ai/ha, scale 0 to 100 (0 no effect, 100 complete control), visual, 12 to 14 days, preemergence
[15] = Postemergence, 500 g ai/ha, scale 0 to 100

C=CCNC(=O)c1cccc(NC(=O)c2cc(C(C)(C)C)nn2C)n1 [Compound 318]
Morningglory plant response rating (morningglory; [4]): 50
Plant response rating, Morningglory (morningglory; [5]): 55
Morningglory plant response rating (morningglory; [6]): 50
Morningglory plant response rating (morningglory; [7]): 20
Velvetleaf plant response rating (velvetleaf [1]; [4]): 40
Plant response rating, Velvetleaf (velvetleaf [1]; [5]): 50
Velvetleaf plant response rating (velvetleaf [1]; [6]): 80
Velvetleaf plant response rating (velvetleaf [1]; [7]): 30
Plant response rating, Cocklebur (cocklebur; [8]): 0
Plant response rating, Cocklebur (cocklebur; [9]): 0
Plant response rating, Cocklebur (cocklebur; [10]): 0
Cocklebur plant response rating (cocklebur; Postemergence, scale 0 to 100): 100
Plant response rating, Cocklebur (cocklebur; [11]): 10
Cocklebur plant response rating (cocklebur; Preemergence, scale 0 to 100, 0 no effect, 100 complete control): 0
Plant response rating, Cocklebur (cocklebur; [12]): 5
Plant response rating, Cocklebur (cocklebur; [13]): 0
Plant response rating, Goosegrass (goosegrass; [8]): 0
Plant response rating, Goosegrass (goosegrass; [9]): 10
Plant response rating, Goosegrass (goosegrass; [10]): 80
Plant response rating, Goosegrass (goosegrass; [14]): 90
Goosegrass plant response rating (goosegrass; [15]): 5
Plant response rating, Goosegrass (goosegrass; [11]): 5
Plant response rating, Goosegrass (goosegrass; [12]): 0
Plant response rating, Goosegrass (goosegrass; [13]): 0
Plant response rating, Lambsquarters (lambsquarters; [8]): 80
Plant response rating, Lambsquarters (lambsquarters; [9]): 95
Plant response rating, Lambsquarters (lambsquarters; [10]): 100
Plant response rating, Lambsquarters (lambsquarters; [14]): 100
Lambsquarters plant response rating (lambsquarters; [15]): 100
Plant response rating, Lambsquarters (lambsquarters; [11]): 100
Plant response rating, Lambsquarters (lambsquarters; [12]): 70
Plant response rating, Lambsquarters (lambsquarters; [13]): 60
Plant response rating, Nutsedge, Yellow (yellow nutsedge; [8]): 0
Plant response rating, Nutsedge, Yellow (yellow nutsedge; [9]): 0
Plant response rating, Nutsedge, Yellow (yellow nutsedge; [10]): 0
Plant response rating, Nutsedge, Yellow (yellow nutsedge; [14]): 0
Nutsedge, Yellow plant response rating (yellow nutsedge; [15]): 0
Plant response rating, Nutsedge, Yellow (yellow nutsedge; [11]): 0
Plant response rating, Nutsedge, Yellow (yellow nutsedge; [12]): 0
Plant response rating, Nutsedge, Yellow (yellow nutsedge; [13]): 0
Plant response rating, Soybean (soybean; [8]): 0
Plant response rating, Soybean (soybean; [10]): 10
Plant response rating, Soybean (soybean; [14]): 40
Soybean plant response rating (soybean; [15]): 90
Plant response rating, Soybean (soybean; [11]): 80
Plant response rating, Soybean (soybean; [12]): 70
Plant response rating, Soybean (soybean; [13]): 65
Plant response rating, Sunflower ([2]; 62 g ai/ha, scale 0 to 100): 0
Plant response rating, Sunflower ([2]; 250 g ai/ha, scale 0-100): 0
Plant response rating, Sunflower ([2]; 500 g ai/ha, scale 0 to 100 (0 no effect, 100 complete control), visual, 12 to 14 days): 0
Plant response rating, Velvetleaf (velvetleaf [3]; [8]): 60
Plant response rating, Velvetleaf (velvetleaf [3]; [10]): 100
Plant response rating, Velvetleaf (velvetleaf [3]; [14]): 100
Velvetleaf plant response rating (velvetleaf [3]; [15]): 60
Plant response rating, Velvetleaf (velvetleaf [3]; [11]): 40
Plant response rating, Velvetleaf (velvetleaf [3]; [12]): 35
Plant response rating, Velvetleaf (velvetleaf [3]; [13]): 0
